This data set has as its system C. elegans N2 Bristol strain. The data set can be described thus: C. elegans fecundity assay. The class given is in vivo, Caenorhabditis elegans. Particulars: estimated concentration threshold, refined threshold-exposure stage; 6–7 days.

Take `Cn1c(C(=O)NCCCc2c[nH]c(N)n2)cc(Br)c1Br` [DHS, dihydrosventrin]: the “ECT (C. elegans)” value was 470 to 490 µM.

The values above are taken from publication PMC3434693 (Drug and chemical toxicology, 2012).
